In patent publication US11028079B2 (ConverGene LLC, priority 2015, dated 2021) one finds Kd data, which are given here for 23 compounds.

In the assay the target is T1, BRD4 bromodomains (Homo sapiens, UniProt O60885).
T1 construct: fused on or other part: T7 phage capsid protein (phage-display fusion; the phage DNA is read out by qPCR)
Description: BROMOscan bromodomain competition binding assay (DiscoveRx). To be noted: Kd from 11 compound concentrations ranging from 0 to 10 μM, read-out: BROMOscan Relative Activity. A digest of the protocol:
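Compounds in 0.1% DMSO/0.9% MEG competed with a solid-phase acetylated peptide for T7 phage-fused BRD4 bromodomains, with the retained bromodomain measured by qPCR.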
As to `Cc1noc(C)c1-c1ccc2nc(N3CCN(CCN(C)C)CC3)nc(NC(C)c3cccs3)c2c1` (centres unmarked) [Example 89, 2-(4-(2-(dimethylamino)ethyl)piperazin-1-yl)-6-(3,5-dimethylisoxazol-4-yl)-N-(1-(thiophen-2-yl)ethyl)quinazolin-4-amine], the Kd was < 500 nM.
`Cc1noc(C)c1-c1ccc2nc(N3CCN(CCN(C)C)CC3)nc(NC(C)c3cccc(Cl)c3)c2c1` (centres unmarked) [Example 90, N-(1-(3-chlorophenyl)ethyl)-2-(4-(2-(dimethylamino)ethyl)piperazin-1-yl)-6-(3,5-dimethylisoxazol-4-yl)quinazolin-4-amine]: the Kd is < 500 nM.
For `Cc1cc(-c2ccc3nc(N4CCN(CCN(C)C)CC4)nc(NCc4cccc(Cl)c4)c3c2)cnc1O` [Example 91, 5-(4-((3-chlorobenzyl)amino)-2-(4-(2-(dimethylamino)ethyl)piperazin-1-yl)quinazolin-6-yl)-3-methylpyridin-2-ol] the value was < 500 nM; for `Cc1noc(C)c1-c1ccc2nc(N3CCN(CCN(C)C)CC3)nc(NCc3ccccc3)c2c1` [Example 92, N-benzyl-2-(4-(2-(dimethylamino)ethyl)piperazin-1-yl)-6-(3,5-dimethylisoxazol-4-yl)quinazolin-4-amine], < 500 nM; for `Cc1nocc1-c1ccc2nc(N3CCN(CCN(C)C)CC3)nc(NCc3cccc(Cl)c3)c2c1` [Example 93, N-(3-chlorobenzyl)-2-(4-(2-(dimethylamino)ethyl)piperazin-1-yl)-6-(3-methylisoxazol-4-yl)quinazolin-4-amine], < 500 nM.
On to `Cc1noc(C)c1-c1ccc2nc(N3CCN(CCN(C)C)CC3)nc(NCc3ccc(Cl)s3)c2c1` [Example 94, N-((5-chlorothiophen-2-yl)methyl)-2-(4-(2-(dimethylamino)ethyl)piperazin-1-yl)-6-(3,5-dimethylisoxazol-4-yl)quinazolin-4-amine], for which the Kd was < 500 nM.
For `Cc1noc(C)c1-c1ccc2nc(N3CCN(CCN(C)C)CC3)nc(NCc3ccc(Cl)cc3)c2c1` [Example 95, N-(4-chlorobenzyl)-2-(4-(2-(dimethylamino)ethyl)piperazin-1-yl)-6-(3,5-dimethylisoxazol-4-yl)quinazolin-4-amine], the Kd fell in the range of 500 to 5000 nM.
For `CN(C)CCN1CCN(c2nc(NCc3cccc(Cl)c3)c3cc(-c4ccnc(O)c4)ccc3n2)CC1` [Example 96, 4-(4-((3-chlorobenzyl)amino)-2-(4-(2-(dimethylamino)ethyl)piperazin-1-yl)quinazolin-6-yl)pyridin-2-ol], the Kd was > 5000 nM.
With `Cc1noc(C)c1-c1ccc2nc(-c3cnn(CC(=O)N(C)C)c3)nc(NCc3cccc(Cl)c3)c2c1` [Example 98, 2-(4-(4-((3-chlorobenzyl)amino)-6-(3,5-dimethylisoxazol-4-yl)quinazolin-2-yl)-1H-pyrazol-1-yl)-N,N-dimethylacetamide] the figure was < 500 nM; with `Cc1noc(C)c1-c1ccc2nc(N3CCN(CCN(C)C)CC3)nc(NCc3ccc(F)cc3)c2c1` [Example 99, 2-(4-(2-(dimethylamino)ethyl)piperazin-1-yl)-6-(3,5-dimethylisoxazol-4-yl)-N-(4-fluorobenzyl)quinazolin-4-amine], 500 to 5000 nM; with `Cn1cc(-c2ccc3nc(Cl)nc(NCc4cccc(Cl)c4)c3c2)ccc1=O` [Example 100, 5-(2-chloro-4-((3-chlorobenzyl)amino)quinazolin-6-yl)-1-methylpyridin-2(1H)-one], > 5000 nM.
On to `Cn1cc(-c2ccc3nc(-c4cnn(CC(N)=O)c4)nc(NCc4cccc(Cl)c4)c3c2)ccc1=O` [Example 101, 2-(4-(4-((3-chlorobenzyl)amino)-6-(1-methyl-6-oxo-1,6-dihydropyridin-3-yl)quinazolin-2-yl)-1H-pyrazol-1-yl)acetamide], for which the Kd is < 500 nM.
With `CNC(=O)Cn1cc(-c2nc(NCc3cccc(Cl)c3)c3cc(-c4ccc(=O)n(C)c4)ccc3n2)cn1` [Example 102, 2-(4-(4-((3-chlorobenzyl)amino)-6-(1-methyl-6-oxo-1,6-dihydropyridin-3-yl)quinazolin-2-yl)-1H-pyrazol-1-yl)-N-methylacetamide] the figure was < 500 nM.
For `Cn1cc(-c2ccc3nc(-c4cnn(CC(C)(C)O)c4)nc(NCc4cccc(Cl)c4)c3c2)ccc1=O` [Example 103, 5-(4-((3-chlorobenzyl)amino)-2-(1-(2-hydroxy-2-methylpropyl)-1H-pyrazol-4-yl)quinazolin-6-yl)-1-methylpyridin-2(1H)-one], the Kd was < 500 nM.
As for `Cn1cc(-c2ccc3nc(-c4cnn(CCC#N)c4)nc(NCc4cccc(Cl)c4)c3c2)ccc1=O` [Example 104, 3-(4-(4-((3-chlorobenzyl)amino)-6-(1-methyl-6-oxo-1,6-dihydropyridin-3-yl)quinazolin-2-yl)-1H-pyrazol-1-yl)propanenitrile], the Kd was < 500 nM.
For the compound `Cn1cc(-c2ccc3nc(-c4cnn(C(C)(C)CO)c4)nc(NCc4cccc(Cl)c4)c3c2)ccc1=O` [Example 105, 5-(4-((3-chlorobenzyl)amino)-2-(1-(1-hydroxy-2-methylpropan-2-yl)-1H-pyrazol-4-yl)quinazolin-6-yl)-1-methylpyridin-2(1H)-one], the Kd is < 500 nM.
Turning to `Cn1cc(-c2ccc3nc(N4CCN(C(=O)CO)CC4)nc(NCc4cccc(Cl)c4)c3c2)ccc1=O` [Example 106, 5-(4-((3-chlorobenzyl)amino)-2-(4-(2-hydroxyacetyl)piperazin-1-yl)quinazolin-6-yl)-1-methylpyridin-2(1H)-one], the Kd was < 500 nM.
As for `Cn1cc(-c2ccc3nc(N4CCN(C(=O)CN)CC4)nc(NCc4cccc(Cl)c4)c3c2)ccc1=O` [Example 107, 5-(2-(4-(2-aminoacetyl)piperazin-1-yl)-4-((3-chlorobenzyl)amino)quinazolin-6-yl)-1-methylpyridin-2(1H)-one], the Kd is < 500 nM.
For `Cn1cc(-c2ccc3nc(N4CCN(CC(N)=O)CC4)nc(NCc4cccc(Cl)c4)c3c2)ccc1=O` [Example 108, 2-(4-(4-((3-chlorobenzyl)amino)-6-(1-methyl-6-oxo-1,6-dihydropyridin-3-yl)quinazolin-2-yl)piperazin-1-yl)acetamide] the value was < 500 nM; for `CNC(=O)CN1CCN(c2nc(NCc3cccc(Cl)c3)c3cc(-c4ccc(=O)n(C)c4)ccc3n2)CC1` [Example 109, 2-(4-(4-((3-chlorobenzyl)amino)-6-(1-methyl-6-oxo-1,6-dihydropyridin-3-yl)quinazolin-2-yl)piperazin-1-yl)-N-methylacetamide], < 500 nM; for `CN(C)C(=O)CN1CCN(c2nc(NCc3cccc(Cl)c3)c3cc(-c4ccc(=O)n(C)c4)ccc3n2)CC1` [Example 110, 2-(4-(4-((3-chlorobenzyl)amino)-6-(1-methyl-6-oxo-1,6-dihydropyridin-3-yl)quinazolin-2-yl)piperazin-1-yl)-N,N-dimethylacetamide], < 500 nM.
As to `C[C@H](O)CN1CCN(c2nc(NCc3cccc(Cl)c3)c3cc(-c4ccc(=O)n(C)c4)ccc3n2)CC1` [Example 111, (S)-5-(4-((3-chlorobenzyl)amino)-2-(4-(2-hydroxypropyl)piperazin-1-yl)quinazolin-6-yl)-1-methylpyridin-2(1H)-one], the Kd is < 500 nM.
Consider `Cc1noc(C)c1-c1ccc2nc(Cl)nc(NCc3cncc(Cl)c3)c2c1` [Example 112, 2-chloro-N-((5-chloropyridin-3-yl)methyl)-6-(3,5-dimethylisoxazol-4-yl)quinazolin-4-amine], for which the Kd fell in the range of 500 to 5000 nM.
